Measurements as given in patent US11072588B2, “Barbituric acid derivatives comprising cationic and lipophilic groups” (UNIVERSITETET I TROMSØ—NORGES ARKTISKE UNIVERSITET, priority 2017, dated 2021).
In brackets after ≈: the same amount, converted by molar mass. Like-named read-outs stand apart in the source and are kept apart here.

Assays:
[1] = tested on: panel of 30 multi-resistant clinical isolates of Gram-positive and Gram-negative bacteria; assay: MIC screening, ranges over the panel of clinical isolates; assay type: cell-based
Experimental: (§1) Working solutions of the test derivatives were prepared with up to 100% DMSO and stored at −20° C. If necessary, the solutions were heated to 40-80° C. before testing to facilitate complete dissolution. Double-distilled water was used in all dilutions prepared. […] A microdilution susceptibility test was used for MIC determination according to Clinical and Laboratory Standards Institute, “Methods for Dilution Antimicrobial Sisceptibility Tests for Bacteria That Graw Aerobically”, Approved Standard M07-A9, edition 2012, with modifications as described by Igumnova et al (Bioorg Med Chem, 2016, 24 (22), 5884-5894).
(§2) Briefly, the bacterial inoculum was adjusted to approximately 2.5-3×10^4 cells/mL in Mueller-Hinton broth (MHB, Difco Laboratories, USA), and incubated in a ratio of 1:1 with test derivatives in polystyrene 96-well flat-bottom microplates (NUNC, Roskilde, Denmark). Positive growth control (without test derivatives) and negative control (without bacteria) were included. The reference antibiotic was oxytetracycline hydrochloride (Sigma Aldrich, Saint Louis, Mo., USA). The microplates were incubated in an EnVision microplate reader (Perkin-Elmer, Turku, Finland) placed in an incubator set to 35° C. for 48 h. The MIC value was defined as the lowest concentration of derivative resulting in no bacterial growth as determined by OD600 measurement. All derivatives were tested in three parallels.
(§3) The MIC was determined as explained above with some exceptions; working solutions of test derivatives were prepared from concentrated DMSO stocks stored at room temperature, the density of the bacterial inoculum was increased 40× to 1-1.2×10^6 cells/mL, enterococci were incubated in Brain Heart Infusion broth (BHIB, Difco Laboratories, USA), the microplates were incubated for 24 h, and the derivatives were tested in four parallels.

E. faecium TUH50-22 = assay: MIC, multi-resistant clinical isolate; assay type: cell-based, Enterococcus faecium; settings: for MIC: Enterococcus faecium, TUH5022, read-out: Antimicrobial activity (MIC); for selectivity index (EC50/MIC): RBC EC50 / MIC
Experimental: as §1, §2, §3

E. faecium 50673722 = assay: MIC, multi-resistant clinical isolate; assay type: cell-based, Enterococcus faecium; settings: for MIC: Enterococcus faecium, read-out: Antimicrobial activity (MIC); for selectivity index (EC50/MIC): RBC EC50 / MIC
Experimental: as §1, §2, §3

E. faecium K36-18 = assay: MIC, multi-resistant clinical isolate; assay type: cell-based, Enterococcus faecium; settings: for MIC: Enterococcus faecium, K3618, read-out: Antimicrobial activity (MIC); for selectivity index (EC50/MIC): RBC EC50 / MIC, E. faecium K36-18
Experimental: as §1, §2, §3

E. faecium 50758899 = assay: MIC, multi-resistant clinical isolate; assay type: cell-based, Enterococcus faecium; settings: for MIC: Enterococcus faecium, read-out: Antimicrobial activity (MIC); for selectivity index (EC50/MIC): RBC EC50 / MIC
Experimental: as §1, §2, §3

E. faecium 50901530 = assay: MIC, multi-resistant clinical isolate; assay type: cell-based, Enterococcus faecium; settings: for MIC: Enterococcus faecium, read-out: Antimicrobial activity (MIC); for selectivity index (EC50/MIC): RBC EC50 / MIC
Experimental: as §1, §2, §3

S. epidermidis = assay: Anti-biofilm activity (inhibition of biofilm formation); assay type: cell-based; settings: Staphylococcus epidermidis, read-out: Anti-biofilm IC50
[2] = tested on: human metastatic melanoma (A2058, ATCC CRL-11147) cells; assay: Anti-cancer activity against A2058 cells; assay type: cell-based; settings: A2058, read-out: Anti-cancer IC50
Method in brief: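 A2058 melanoma cells seeded at 2,000/well overnight, then exposed to a concentration range in serum-free MEM (gentamycin, NEAA, pyruvate, glutamine) for 24 h (cytotoxicity stated as after 72 h exposure). MTS-type tetrazolium reagent added for 1 h; absorbance at 485 nm; % survival versus medium and Triton X-100 controls.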

K. pneumoniae K47-25 = assay: MIC, multi-resistant clinical isolate; assay type: cell-based, Klebsiella pneumoniae; settings: K. pneumoniae K47-25, resistant to colistin; for MIC: Klebsiella pneumoniae, K4725, 24 h, read-out: Antimicrobial activity (MIC); for selectivity index (EC50/MIC): RBC EC50 / MIC
Experimental: as §1, §2, §3

K. pneumoniae 50625602 = assay: MIC, multi-resistant clinical isolate; assay type: cell-based, Klebsiella pneumoniae; settings: for MIC: Klebsiella pneumoniae, read-out: Antimicrobial activity (MIC); for selectivity index (EC50/MIC): RBC EC50 / MIC
Experimental: as §1, §2, §3

K. pneumoniae K66-45 = assay: MIC, multi-resistant clinical isolate; assay type: cell-based, Klebsiella pneumoniae; settings: for MIC: Klebsiella pneumoniae, K6645, read-out: Antimicrobial activity (MIC); for selectivity index (EC50/MIC): RBC EC50 / MIC, K. pneumoniae K66-45
Experimental: as §1, §2, §3

K. pneumoniae 50531633 = assay: MIC, multi-resistant clinical isolate; assay type: cell-based, Klebsiella pneumoniae; settings: K. pneumoniae 50531633, resistant to colistin; for MIC: Klebsiella pneumoniae, 24 h, read-out: Antimicrobial activity (MIC); for selectivity index (EC50/MIC): RBC EC50 / MIC
Experimental: as §1, §2, §3

K. pneumoniae 50667959 = assay: MIC, multi-resistant clinical isolate; assay type: cell-based, Klebsiella pneumoniae; settings: for MIC: Klebsiella pneumoniae, read-out: Antimicrobial activity (MIC); for selectivity index (EC50/MIC): RBC EC50 / MIC
Experimental: as §1, §2, §3

[3] = tested on: Escherichia coli ATCC 25922; assay: MIC assay, antibiotic susceptible reference strain; assay type: cell-based; settings: Escherichia coli, ATCC25922, read-out: Antimicrobial activity (MIC) E. c
Method in brief: (§4)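 Broth microdilution followed CLSI M07-A9 with modifications: inoculum ~2.5-3×10^4 cells/mL in Mueller-Hinton broth, mixed 1:1 with test derivative, incubated 48 h at 35 °C. MIC was the lowest concentration giving no growth by OD600, tested in three parallels, with oxytetracycline as reference antibiotic.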

[4] = tested on: Staphylococcus aureus ATCC 9144; assay: MIC assay, antibiotic susceptible reference strain; assay type: cell-based; settings: Staphylococcus aureus, ATCC9144, read-out: Antimicrobial activity (MIC) S. a
Method in brief: as §4

[5] = tested on: Corynebacterium glutamicum ATCC 13032; assay: MIC assay, antibiotic susceptible reference strain; assay type: cell-based; settings: Corynebacterium glutamicum, ATCC13032, read-out: Antimicrobial activity (MIC) C. g
Method in brief: as §4

[6] = tested on: Pseudomonas aeruginosa PA01, DSM 19880 (ATCC 15692); assay: MIC assay, antibiotic susceptible reference strain; assay type: cell-based; settings: Pseudomonas aeruginosa, read-out: Antimicrobial activity (MIC) P. a
Method in brief: as §4

[7] = tested on: antibiotic susceptible Gram-positive and Gram-negative reference strains; assay: MIC assay, ranges over the reference strains; assay type: cell-based; settings: reference strains, range; read-out: MIC values against the Gram-negative bacteria E. coli and P. aeruginosa
Experimental: as §1, §2

[8] = read-out: MIC values against all the 30 multi-resistant clinical isolates

SMILES	MIC (E. faecium TUH50-22) [µg/mL]	selectivity index (EC50/MIC) (E. faecium TUH50-22)	MIC (E. faecium 50673722) [µg/mL]	selectivity index (EC50/MIC) (E. faecium 50673722)	MIC (E. faecium K36-18) [µg/mL]	selectivity index (EC50/MIC) (E. faecium K36-18)	MIC (E. faecium 50758899) [µg/mL]	selectivity index (EC50/MIC) (E. faecium 50758899)	MIC (E. faecium 50901530) [µg/mL]	selectivity index (EC50/MIC) (E. faecium 50901530)	IC50 (S. epidermidis) [µg/mL]	IC50 [2] [µg/mL]	MIC (K. pneumoniae K47-25) [µg/mL]	selectivity index (EC50/MIC) (K. pneumoniae K47-25)	MIC (K. pneumoniae 50625602) [µg/mL]	selectivity index (EC50/MIC) (K. pneumoniae 50625602)	MIC (K. pneumoniae K66-45) [µg/mL]	selectivity index (EC50/MIC) (K. pneumoniae K66-45)	MIC (K. pneumoniae 50531633) [µg/mL]	selectivity index (EC50/MIC) (K. pneumoniae 50531633)	also measured
N=C(N)NCCCCN1C(=O)N(CCCCNC(=N)N)C(=O)C(Cc2cc(Br)cc(Br)c2)(Cc2cc(Br)cc(Br)c2)C1=O [8(ii), 1,1′-(4,4′-(5,5-bis(3,5-dibromobenzyl)-2,4,6-trioxodihydropyrimidine-1,3(2H,4H)-diyl)bis(butane-4,1-diyl))diguanidine]	2 (≈ 2.35 µM)	(28)	4 (≈ 4.7 µM)	(14)	4 (≈ 4.7 µM)	(14)	4 (≈ 4.7 µM)	(14)	2 (≈ 2.35 µM)	(28)	1 (≈ 1.18 µM)	2 (≈ 2.35 µM)	4 (≈ 4.7 µM)	(14)	4 (≈ 4.7 µM)	(14)	4 (≈ 4.7 µM)	(14)	4 (≈ 4.7 µM)	(14)	MIC [1, 8]: 2 to 16 µg/mL (≈ 2.35 to 18.8 µM); MIC (K. pneumoniae 50667959): 4 µg/mL (≈ 4.7 µM); selectivity index (EC50/MIC) (K. pneumoniae 50667959): (14); MIC [3]: 2 µg/mL (≈ 2.35 µM); MIC [4]: 1 µg/mL (≈ 1.18 µM); MIC [5]: 0.25 µg/mL (≈ 0.294 µM); MIC [6]: 4 µg/mL (≈ 4.7 µM); MIC [7]: 1 to 4 µg/mL (≈ 1.18 to 4.7 µM)
N=C(N)NCCCCN1C(=O)N(CCCCNC(=N)N)C(=O)C(Cc2ccc(F)c3ccccc23)(Cc2ccc(F)c3ccccc23)C1=O [8(v), 1,1′-(4,4′-(5,5-bis((4-fluoronaphthalen-1-yl)methyl)-2,4,6-trioxodihydropyrimidine-1,3(2H,4H)-diyl)bis(butane-4,1-diyl))diguanidine]	4 (≈ 5.96 µM)	(22)	4 (≈ 5.96 µM)	(22)	4 (≈ 5.96 µM)	(22)	4 (≈ 5.96 µM)	(22)	4 (≈ 5.96 µM)	(22)	1 (≈ 1.49 µM)	8 (≈ 11.9 µM)	8 (≈ 11.9 µM)	(11)	16 (≈ 23.9 µM)	(6)	4 (≈ 5.96 µM)	(22)	8 (≈ 11.9 µM)	(11)	MIC [1, 8]: 2 to 16 µg/mL (≈ 2.98 to 23.9 µM); MIC (K. pneumoniae 50667959): 4 µg/mL (≈ 5.96 µM); selectivity index (EC50/MIC) (K. pneumoniae 50667959): (22); MIC [3]: 1 µg/mL (≈ 1.49 µM); MIC [4]: 1 µg/mL (≈ 1.49 µM); MIC [5]: 0.25 µg/mL (≈ 0.373 µM); MIC [6]: 4 µg/mL (≈ 5.96 µM); MIC [7]: 1 to 4 µg/mL (≈ 1.49 to 5.96 µM)
CC(C)(C)c1ccc(CC2(Cc3ccc(C(C)(C)C)cc3)C(=O)N(CCCCNC(=N)N)C(=O)N(CCCCNC(=N)N)C2=O)cc1 [Compound 8(i), 1,1′-(4,4′-(5,5-bis(4-tert-butylbenzyl)-2,4,6-trioxodihydropyrimidine-1,3(2H,4H)-diyl)bis(butane-4,1-diyl))diguanidine]	2 (≈ 3.09 µM)	(39)	2 (≈ 3.09 µM)	(39)	2 (≈ 3.09 µM)	(39)	2 (≈ 3.09 µM)	(39)	4 (≈ 6.18 µM)	(19)	1 (≈ 1.55 µM)	2 (≈ 3.09 µM)	4 (≈ 6.18 µM)	(19)	4 (≈ 6.18 µM)	(19)	4 (≈ 6.18 µM)	(19)	4 (≈ 6.18 µM)	(19)	MIC ([1]; Pseudomonas aeruginosa, read-out: MIC against P. aeruginosa): 8 to 16 µg/mL (≈ 12.4 to 24.7 µM); fold improvement in antimicrobial activity compared to the analogous amine barbiturate 7(i) ([1]; multi-resistant clinical isolates): up to 4 fold; MIC ([1]; read-out: MIC values against S. aurues, E. faecium and E. coli): 2 to 4 µg/mL (≈ 3.09 to 6.18 µM); MIC ([1]; read-out: MIC values against the Gram-negative multi-resistant clinical isolates of K. pneumoniae and A. baumanii): 4 to 8 µg/mL (≈ 6.18 to 12.4 µM); MIC (K. pneumoniae 50667959): 16 µg/mL (≈ 24.7 µM); selectivity index (EC50/MIC) (K. pneumoniae 50667959): (5); MIC [3]: 2 µg/mL (≈ 3.09 µM); MIC [4]: 1 µg/mL (≈ 1.55 µM); MIC [5]: < 0.13 µg/mL; MIC [6]: 4 µg/mL (≈ 6.18 µM); MIC [7]: 1 to 4 µg/mL (≈ 1.55 to 6.18 µM)
